In patent US8044074B2, “Substituted heterocycles, their use as medicament, and pharmaceutical preparations comprising them” (Sanofi-Aventis, priority 2005, dated 2011):

Each molecule was assayed against T1, Human Kv1.5 channels (Homo sapiens, UniProt P22460) (assay: Activity on the Kv1.5 channel, two-microelectrode voltage clamp on xenopus oocytes). Conditions: human Kv1.5 expressed in Xenopus laevis oocytes; percent inhibition of control current fitted with Hill equation; room temperature; read-out: Kv1.5 IC-50.
T1 construct: expressed in transfected cells; host or cells: Xenopus laevis oocytes (injection of RNA synthesized in vitro)
T1 sequence (P22460 whole entry): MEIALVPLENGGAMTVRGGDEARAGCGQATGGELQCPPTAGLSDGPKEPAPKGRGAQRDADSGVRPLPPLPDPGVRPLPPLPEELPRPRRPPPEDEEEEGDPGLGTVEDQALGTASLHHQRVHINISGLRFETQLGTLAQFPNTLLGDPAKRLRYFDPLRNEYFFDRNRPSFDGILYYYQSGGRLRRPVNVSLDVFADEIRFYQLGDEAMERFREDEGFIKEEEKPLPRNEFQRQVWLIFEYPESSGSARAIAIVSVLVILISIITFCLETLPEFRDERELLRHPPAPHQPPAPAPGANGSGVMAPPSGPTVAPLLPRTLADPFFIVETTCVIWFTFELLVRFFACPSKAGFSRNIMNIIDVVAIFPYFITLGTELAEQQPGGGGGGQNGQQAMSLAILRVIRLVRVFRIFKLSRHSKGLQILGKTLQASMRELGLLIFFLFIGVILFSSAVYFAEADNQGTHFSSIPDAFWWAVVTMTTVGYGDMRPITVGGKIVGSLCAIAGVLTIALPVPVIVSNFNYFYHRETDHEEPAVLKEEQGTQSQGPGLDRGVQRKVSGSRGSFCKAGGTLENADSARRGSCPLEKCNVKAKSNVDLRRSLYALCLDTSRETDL
Type: cell-based
Experimental: Determination of the Activity on the Kv1.5 Channel
Human Kv1.5 channels were expressed in xenopus oocytes. For this purpose, firstly oocytes were isolated from Xenopus laevis and defolliculated. Kv1.5-encoding RNA synthesized in vitro was then injected into these oocytes. After Kv1.5 protein expression for 1-7 days, Kv1.5 currents were measured on the oocytes using the two-microelectrode voltage clamp technique. The Kv1.5 channels were in this case usually activated with voltage jumps lasting 500 ms to 0 mV and 40 mV. A solution of the following composition flowed through the bath: NaCl 96 mM, KCl 2 mM, CaCl2 1.8 mM, MgCl2 1 mM, HEPES 5 mM (titrated to pH 7.4 with NaOH). These experiments were carried out at room temperature. The following were employed for data acquisition and analysis: Geneclamp amplifier (Axon Instruments, Foster City, USA) and MacLab D/A converter and software (ADinstruments, Castle Hill, Australia). The substances of the invention were tested by adding them in various concentrations to the bath solution. The effects of the substances were calculated as percent inhibition of the Kv1.5 control current which was obtained when no substance was added to the solution. The data were then extrapolated using the Hill equation in order to determine the inhibitory concentrations IC50 for the respective substances.

Compared with `O=c1ccccn1[C@H](c1ccccc1)[C@H](OCC1CC1)c1ccccc1` (racemic) [Example 1, 1R′,2R′-1-(2-Cyclopropylmethoxy-1,2-diphenylethyl)-1H-pyridin-2-one], `O=c1ccc(F)cn1C(c1ccccc1)C(OCC1CC1)c1ccccc1` (racemic) [Example 3, 1-(2-Cyclopropylmethoxy-1,2-diphenylethyl)-5-fluoro-1H-pyridin-2-one] is 2.1-fold higher in IC50: 380 nM for the first, 780 nM for the second.

`COc1ccc([C@@H](OCC2CC2)[C@H](c2ccc(F)cc2)n2ccccc2=O)cc1` (racemic) [Example 2, 1R′,2S′-1-[2-Cyclopropylmethoxy-1-(4-fluorophenyl)-2-(4-methoxy-phenyl)ethyl]-1H-pyridin-2-one] and `COc1ccc([C@@H](OCC2CC2)[C@@H](c2ccc(F)cc2)n2ccccc2=O)cc1` (racemic) [Example 17, 1R′,2R′-1-[2-Cyclopropylmethoxy-1-(4-fluorophenyl)-2-(4-methoxyphenyl)ethyl]-1H-pyridin-2-one] are within 1.5-fold of each other in IC50: 1300 nM for the first, 1830 nM for the second.

Compared with `O=c1cccnn1C(c1ccccc1)C(OCC1CC1)c1ccc(Cl)cc1` (racemic) [Example 4, 2-[2-(4-Chlorophenyl)-2-cyclopropylmethoxy-1-phenylethyl]-2H-pyridazin-3-one], `O=c1ccccn1C(c1ccccc1)C(OCC1CC1)c1ccc(Cl)cc1` (racemic) [Example 7, 1-[2-(4-Chlorophenyl)-2-cyclopropylmethoxy-1-phenylethyl]-1H-pyridin-2-one] is 5.8-fold lower in IC50: 1050 nM for the first, 180 nM for the second.

First: N#Cc1ccc(O[C@H](c2ccc(F)cc2)[C@@H](c2ccc(F)cc2)n2cc(F)ccc2=O)cc1 (racemic) [Example 5, 1R′,2R′-5-Fluoro-1-(2-p-cyanophenoxy-1,2-di-p-fluorophenylethyl)-1H-pyridin-2-one]
Second: O=c1ccc(F)cn1C(c1ccc(F)cc1)C(OC1CC1)c1ccc(F)cc1 (racemic) [Example 6, 1-[2-Cyclopropoxy-1,2-bis-(4-fluorophenyl)ethyl]-5-fluoro-1H-pyridin-2-one]
The IC50 of the first is higher: 20000 to 50000 nM for the first, 6480 nM for the second. The second is the more potent here.

`O=c1ccccn1[C@H](c1ccc(F)cc1)[C@H](OCC1CC1)c1ccc(F)cc1` (racemic) [Example 8, 1R′,2R′-1-[2-Cyclopropylmethoxy-1,2-bis(4-fluorophenyl)ethyl]-1H-pyridin-2-one] and `O=c1ccccn1[C@@H](c1ccc(F)cc1)[C@H](OCC1CC1)c1ccc(F)cc1` (racemic) [Example 9, 1R′,2S′-1-[2-Cyclopropylmethoxy-1,2-bis-(4-fluorophenyl)ethyl]-1H-pyridin-2-one] are within 1.5-fold of each other in IC50: 330 nM for the first, 410 nM for the second.

Compared with `O=c1ccccn1C(c1ccc(F)cc1)C(OCC1CC1)c1ccc(Br)cc1` (racemic) [Example 10, 1-[2-(4-Bromophenyl)-2-cyclopropylmethoxy-1-(4-fluorophenyl)ethyl]-1H-pyridin-2-one], `O=c1ccccn1C(c1ccc(F)cc1)C(OCC1CC1)c1ccc(F)cc1` (racemic) [Example 14, 1-[2-Cyclopropylmethoxy-1,2-bis-(4-fluorophenyl)ethyl]-1H-pyridin-2-one] is 1.6-fold higher in IC50: 870 nM for the first, 1400 nM for the second. The first is the more potent here.

First: N#Cc1ccc(C(OCC2CC2)C(c2ccc(F)cc2)n2ccccc2=O)cc1 (racemic) [Example 11, 4-[1-Cyclopropylmethoxy-2-(4-fluorophenyl)-2-(2-oxo-2H-pyridin-1-yl)ethyl]benzonitrile]
Second: O=c1ccc(F)cn1C(c1ccc(F)cc1)C(OCC1CC1)c1ccc(F)cc1 (racemic) [Example 16, 1-[2-Cyclopropylmethoxy-1,2-bis-(4-fluorophenyl)ethyl]-5-fluoro-1H-pyridin-2-one]
The IC50 of the first is 2.2-fold lower: 2030 nM for the first, 4560 nM for the second.

Compared with `O=c1ccc(F)cn1[C@H](c1ccccc1)[C@H](OCC1CC1)c1ccccc1` (racemic) [Example 12, 1R′,2R′-1-(2-Cyclopropylmethoxy-1,2-diphenylethyl)-5-fluoro-1H-pyridin-2-one], `N#Cc1ccc(COC(c2ccc(Cl)cc2)C(c2ccccc2)n2ccccc2=O)cc1` (racemic) [Example 15, 4-[1-(4-Chlorophenyl)-2-(2-oxo-2H-pyridin-1-yl)-2-phenylethoxymethyl]benzonitrile] is 1.7-fold higher in IC50: 1470 nM for the first, 2510 nM for the second.

First: COc1ccc(CO[C@H](c2ccc(OC)cc2)[C@@H](c2ccc(F)cc2)n2ccccc2=O)cc1 (racemic) [Example 13, 1R′,2R′-1-[1-(4-Fluorophenyl)-2-(4-methoxybenzyloxy)-2-(4-methoxyphenyl)ethyl]-1H-pyridin-2-one]
Second: COc1ccc(CO[C@H](c2ccc(OC)cc2)[C@H](c2ccc(F)cc2)n2ccccc2=O)cc1 (racemic) [Example 18, 1R′,2S′-1-[1-(4-Fluorophenyl)-2-(4-methoxybenzyloxy)-2-(4-methoxyphenyl)ethyl]-1H-pyridin-2-one]
The IC50 of the first is 1.7-fold higher: 4480 nM for the first, 2690 nM for the second.

These molecules were tested against Human TASK-1 channels (UniProt O14649) (assay: Activity on the TASK-1 channel, two-microelectrode voltage clamp on xenopus oocytes). Conditions: TASK-1 expressed in Xenopus laevis oocytes; percent inhibition of control current fitted with Hill equation; room temperature; read-out: mTask-1 IC-50.
Type: cell-based
Experimental: Determination of the Activity on the TASK-1 Channel
Human TASK-1 channels were expressed in xenopus oocytes. For this purpose, firstly oocytes were isolated from Xenopus laevis and defolliculated. TASK-1-encoding RNA synthesized in vitro was then injected into these oocytes. After TASK-1 protein expression for 2 days, TASK-1 currents were measured on the oocytes using the two-microelectrode voltage clamp technique. The TASK-1 channels were in this case usually activated with voltage jumps lasting 250 ms to 40 mV. A solution of the following composition flowed through the bath: NaCl 96 mM, KCl 2 mM, CaCl2 1.8 mM, MgCl2 1 mM, HEPES 5 mM (titrated to pH 7.4 with NaOH). These experiments were carried out at room temperature. The following were employed for data acquisition and analysis: Geneclamp amplifier (Axon Instruments, Foster City, USA) and MacLab D/A converter and software (ADinstruments, Castle Hill, Australia). The substances of the invention were tested by adding them in various concentrations to the bath solution. The effects of the substances were calculated as percent inhibition of the TASK-1 control current which was obtained when no substance was added to the solution. The data were then extrapolated using the Hill equation in order to determine the half-maximum inhibitory concentrations (IC50) for the respective substances.

With `O=c1ccccn1[C@@H](c1ccc(F)cc1)[C@H](OCC1CC1)c1ccc(F)cc1` (racemic) [Example 9, 1R′,2S′-1-[2-Cyclopropylmethoxy-1,2-bis-(4-fluorophenyl)ethyl]-1H-pyridin-2-one] the IC50 was 3100 nM.
